Assay results reported in patent US20220282217A1, “COMPOSITIONS AND METHODS FOR PREPARING T CELL COMPOSITIONS AND USES THEREOF” (priority 2019, published 2022).
Where a SMILES comes first, the peptide text is derived from it.

Target: HLA-A03.01 (Homo sapiens, UniProt P04439)
Experiment: Class I MHC peptide binding affinity (displacement of radiolabeled reference peptide)
Settings: allele A03.01; read-out: Observed Affinity (IC50; (nM))
Protocol: In brief, MHCI complexes were prepared and bound to radiolabeled reference peptides. Peptides were incubated at varying concentrations with these complexes for 2 days, and the amount of remaining radiolabeled peptide bound to WWI was measured using size exclusion gel-filtration.

Sequence of HLA-A03.01 (P04439 25-365): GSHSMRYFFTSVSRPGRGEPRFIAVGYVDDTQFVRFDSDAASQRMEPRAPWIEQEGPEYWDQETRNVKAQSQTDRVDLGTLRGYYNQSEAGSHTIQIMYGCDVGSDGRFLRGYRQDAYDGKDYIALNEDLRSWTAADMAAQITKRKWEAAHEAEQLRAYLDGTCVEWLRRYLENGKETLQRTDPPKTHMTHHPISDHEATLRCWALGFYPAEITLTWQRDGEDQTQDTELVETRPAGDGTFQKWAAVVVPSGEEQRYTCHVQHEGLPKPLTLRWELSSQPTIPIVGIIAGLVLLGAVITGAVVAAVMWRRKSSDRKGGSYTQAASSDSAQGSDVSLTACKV
Sequence of HLA-A03.01 (P61769 21-119 partner): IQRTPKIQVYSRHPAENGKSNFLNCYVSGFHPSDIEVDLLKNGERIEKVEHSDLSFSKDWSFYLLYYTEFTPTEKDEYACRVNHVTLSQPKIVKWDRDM

Row | Compound | IC50 [nM]
1 | CC[C@H](C)[C@H](NC(=O)[C@H](CS)NC(=O)[C@H](Cc1ccccc1)NC(=O)[C@H](CC(N)=O)NC(=O)[C@H](C)NC(=O)[C@H](CC(C)C)NC(=O)[C@@H](N)CS)C(=O)N[C@@H](Cc1ccccc1)C(=O)N[C@@H](CC(N)=O)C(=O)N[C@@H](CCCNC(=N)N)C(=O)O | 222
2 | CSCC[C@H](NC(=O)[C@@H](N)CC(C)C)C(=O)N[C@@H](CC(C)C)C(=O)N[C@@H](CC(C)C)C(=O)N[C@@H](CCCNC(=N)N)C(=O)N[C@@H](CC(C)C)C(=O)N[C@@H](CC(N)=O)C(=O)N[C@@H](CC(C)C)C(=O)N[C@@H](CCCNC(=N)N)C(=O)N[C@@H](CCCCN)C(=O)O (H-LMLLRLNLRK-OH; N-terminus and C-terminus assumed) | 6
3 | CC(C)[C@H](NC(=O)[C@@H](N)CCCNC(=N)N)C(=O)N[C@@H](CC(N)=O)C(=O)N[C@H](C(=O)N[C@@H](C)C(=O)N[C@@H](Cc1c[nH]c2ccccc12)C(=O)N[C@@H](CCCCN)C(=O)N[C@H](C(=O)N[C@@H](CCCCN)C(=O)N[C@@H](CCCCN)C(=O)O)[C@@H](C)O)[C@@H](C)O (H-RVNTAWKTKK-OH; N-terminus and C-terminus assumed) | 2.3
4 | CSCC[C@H](NC(=O)[C@H](CC(C)C)NC(=O)[C@@H](N)CCCCN)C(=O)N[C@@H](CC(C)C)C(=O)N[C@@H](CC(C)C)C(=O)N[C@@H](CCCNC(=N)N)C(=O)N[C@@H](CC(C)C)C(=O)N[C@@H](CC(N)=O)C(=O)N[C@@H](CC(C)C)C(=O)N[C@@H](CCCNC(=N)N)C(=O)O (H-KLMLLRLNLR-OH; N-terminus and C-terminus assumed) | 48.4
5 | CC(C)C[C@H](NC(=O)[C@@H](N)CO)C(=O)N[C@@H](CCC(N)=O)C(=O)N1CCC[C@H]1C(=O)N1CCC[C@H]1C(=O)N1CCC[C@H]1C(=O)N1CCC[C@H]1C(=O)NCC(=O)N[C@@H](Cc1ccccc1)C(=O)N[C@@H](CCCCN)C(=O)O (H-SLQPPPPGFK-OH; N-terminus and C-terminus assumed) | 19
6 | CC(C)C[C@H](NC(=O)[C@H](CCC(N)=O)NC(=O)[C@H](CC(C)C)NC(=O)[C@@H](N)Cc1c[nH]cn1)C(=O)N[C@@H](CCCCN)C(=O)N[C@@H](CO)C(=O)N[C@@H](CS)C(=O)N[C@@H](CCCNC(=N)N)C(=O)N[C@@H](CCCNC(=N)N)C(=O)N[C@@H](CCCCN)C(=O)O (H-HLQLKSCRRK-OH; N-terminus and C-terminus assumed) | 96.9
7 | CC[C@H](C)[C@H](NC(=O)[C@H](CCCCN)NC(=O)[C@@H](N)CCCNC(=N)N)C(=O)N[C@@H](CO)C(=O)N[C@@H](CC(N)=O)C(=O)N[C@@H](Cc1c[nH]c2ccccc12)C(=O)N[C@@H](CO)C(=O)N[C@@H](CC(C)C)C(=O)N[C@@H](CCCCN)C(=O)N[C@@H](CCCCN)C(=O)O (H-RKISNWSLKK-OH; N-terminus and C-terminus assumed) | 131
8 | CC(C)C[C@H](NC(=O)[C@@H](NC(=O)[C@@H](N)[C@@H](C)O)[C@@H](C)O)C(=O)N[C@@H](CC(N)=O)C(=O)N[C@@H](CO)C(=O)N1CCC[C@H]1C(=O)N1CCC[C@H]1C(=O)N[C@@H](CC(C)C)C(=O)N[C@@H](CCCCN)C(=O)O (H-TTLNSPPLK-OH; N-terminus and C-terminus assumed) | 9.8
9 | CC(C)C[C@H](NC(=O)[C@@H](N)CC(C)C)C(=O)N[C@H](C(=O)N[C@@H](CO)C(=O)N[C@@H](CO)C(=O)N[C@@H](CO)C(=O)N[C@@H](CCCNC(=N)N)C(=O)N[C@@H](CCC(=O)O)C(=O)N[C@@H](Cc1c[nH]c2ccccc12)C(=O)N[C@@H](CCCCN)C(=O)O)[C@@H](C)O (H-LLTSSSREWK-OH; N-terminus and C-terminus assumed) | 1770
10 | CC[C@H](C)[C@H](NC(=O)[C@H](Cc1c[nH]c2ccccc12)NC(=O)[C@H](CS)NC(=O)[C@H](Cc1ccccc1)NC(=O)[C@H](Cc1ccccc1)NC(=O)[C@@H](N)Cc1ccccc1)C(=O)N[C@@H](CC(C)C)C(=O)N[C@@H](CO)C(=O)N[C@@H](CS)C(=O)N[C@@H](CCCCN)C(=O)O (H-FFFCWILSCK-OH; N-terminus and C-terminus assumed) | 597
11 | C[C@@H](O)[C@H](NC(=O)[C@H](CCC(=O)O)NC(=O)[C@H](CCCCN)NC(=O)[C@H](CCCCN)NC(=O)[C@H](CCCCN)NC(=O)[C@H](CO)NC(=O)[C@@H](N)CCCCN)C(=O)N[C@@H](Cc1ccccc1)C(=O)N[C@@H](CCCCN)C(=O)N[C@@H](CCCCN)C(=O)O (H-KSKKKETFKK-OH; N-terminus and C-terminus assumed) | 39.6
12 | CSCC[C@H](NC(=O)[C@@H](N)Cc1ccc(O)cc1)C(=O)N[C@@H](Cc1ccccc1)C(=O)N[C@@H](CC(C)C)C(=O)N[C@@H](CCCCN)C(=O)N[C@@H](C)C(=O)N[C@@H](CCC(=O)O)C(=O)N[C@@H](CO)C(=O)N[C@@H](CCCCN)C(=O)O (H-YMFLKAESK-OH; N-terminus and C-terminus assumed) | 79.8
13 | CC(C)C[C@H](N)C(=O)N[C@H](C(=O)N[C@@H](CO)C(=O)N[C@@H](CO)C(=O)N[C@@H](CO)C(=O)N[C@@H](CCCNC(=N)N)C(=O)N[C@@H](CCC(=O)O)C(=O)N[C@@H](Cc1c[nH]c2ccccc12)C(=O)N[C@@H](CCCCN)C(=O)O)[C@@H](C)O (H-LTSSSREWK-OH; N-terminus and C-terminus assumed) | 118
14 | CC(C)C[C@H](NC(=O)[C@@H](NC(=O)[C@H](CO)NC(=O)[C@H](CO)NC(=O)[C@H](CC(C)C)NC(=O)[C@@H](N)CCCNC(=N)N)C(C)C)C(=O)N[C@@H](CCC(N)=O)C(=O)N[C@@H](CCCNC(=N)N)C(=O)N[C@@H](Cc1ccccc1)C(=O)N[C@@H](CCCNC(=N)N)C(=O)O | 12.5
15 | CSCC[C@H](N)C(=O)N[C@@H](CC(C)C)C(=O)N[C@@H](CC(C)C)C(=O)N[C@@H](CCCNC(=N)N)C(=O)N[C@@H](CC(C)C)C(=O)N[C@@H](CC(N)=O)C(=O)N[C@@H](CC(C)C)C(=O)N[C@@H](CCCNC(=N)N)C(=O)N[C@@H](CCCCN)C(=O)O (H-MLLRLNLRK-OH; N-terminus and C-terminus assumed) | 1.3
16 | CC(C)C[C@H](NC(=O)[C@@H](N)[C@@H](C)O)C(=O)N[C@@H](CC(N)=O)C(=O)N[C@@H](CO)C(=O)N1CCC[C@H]1C(=O)N1CCC[C@H]1C(=O)N[C@@H](CC(C)C)C(=O)N[C@@H](CCCCN)C(=O)N[C@@H](CCCCN)C(=O)O (H-TLNSPPLKK-OH; N-terminus and C-terminus assumed) | 5.4
17 | CSCC[C@H](NC(=O)[C@@H](NC(=O)[C@H](Cc1ccccc1)NC(=O)[C@@H](N)CC(C)C)C(C)C)C(=O)N[C@@H](CO)C(=O)N[C@@H](CC(=O)O)C(=O)N[C@H](C(=O)N[C@H](C(=O)N[C@@H](Cc1ccc(O)cc1)C(=O)N[C@@H](CCCCN)C(=O)O)[C@@H](C)O)[C@@H](C)O (H-LFVMSDTTYK-OH; N-terminus and C-terminus assumed) | 749
18 | CC(C)C[C@H](NC(=O)[C@H](CCC(N)=O)NC(=O)[C@H](CC(C)C)NC(=O)[C@H](Cc1c[nH]cn1)NC(=O)[C@H](CC(N)=O)NC(=O)[C@H](CCC(N)=O)NC(=O)[C@H](CCCNC(=N)N)NC(=O)[C@H](CO)NC(=O)[C@@H](N)CCCCN)C(=O)N[C@@H](CCCCN)C(=O)O (H-KSRQNHLQLK-OH; N-terminus and C-terminus assumed) | 4.7
19 | CC[C@H](C)[C@H](NC(=O)[C@@H](N)CCCCN)C(=O)N[C@@H](CO)C(=O)N[C@@H](CC(N)=O)C(=O)N[C@@H](Cc1c[nH]c2ccccc12)C(=O)N[C@@H](CO)C(=O)N[C@@H](CC(C)C)C(=O)N[C@@H](CCCCN)C(=O)N[C@@H](CCCCN)C(=O)N[C@H](C(=O)O)C(C)C (H-KISNWSLKKV-OH; N-terminus and C-terminus assumed) | 115
